# From PMC4503722, “Novel Phenotypic Outcomes Identified for a Public Collection of Approved Drugs from a Publicly Accessible Panel of Assays” (PLoS ONE, 2015)
# Like-named read-outs stand apart in the source and are kept apart here.
# Legend:
# Test in all cases: cells
# [1] = test system: endothelial tube formation in co-cultures of ECFCs and ADSCs treated with VEGF; type: cell-based, human
# [2] = test system: nuclear β-catenin in C2C12 cells; type: cell-based
# INS-1E cells = type: cell-based, rat
# NCI-H716 cells = type: cell-based, Human
# HeLa cells = type: cell-based; details: HeLa, read-out: CellCycle G2/M
# DLD-1 = type: cell-based
# SW480 = type: cell-based
# HCT116 = type: cell-based
# [3] = test system: HCT116 cells treated with a GSK3β inhibitor; type: cell-based
# Colo320 = type: cell-based
# HT-29 = type: cell-based; details: read-out: Basal_Viability ATP HT-29
# SNU-C1 = type: cell-based
# RKO = type: cell-based
# [4] = S2 Table; module primary assay; 20 / 20.1 codes per legend; read-out: Insulin Secretion
# [5] = basal, DLD-1, read-out: Basal_Viability ATP DLD-1
# [6] = basal, SW480, read-out: Basal_Viability ATP SW480
# [7] = basal, HCT116, read-out: Basal_Viability ATP HCT116
# [8] = HCT116 pretreated with GSK3b inhibitor, read-out: GSK3b inh pretreated_Viability ATP HCT116
# [9] = basal; RKO; read-out: Basal_Viability ATP RKO
# [10] = basal, SNU-C1, read-out: Basal_Viability ATP SNU-C1
smiles,measurement,setting,value
Cc1nc2ccccc2n1Cc1ccc(Cl)cc1 [1-P-chlorobenzyl-2-methylbenzimidazole],IC50,"[1]; IC50 / EC50; endothelial tube area, ADSC/ECFC co-culture; read-out: Anti-Angiogenesis",7380 nM
same,EC50,"[2]; IC50 / EC50, C2C12 beta-catenin translocation, read-out: Wnt Pathway",> 10000 nM
same,EC50,INS-1E cells; IC50 / EC50; INS-1E; read-out: Insulin Secretion,> 10000 nM
same,EC50,NCI-H716 cells; IC50 / EC50; NCI-H716; read-out: GLP 1 Secretion,> 10000 nM
same,EC50,HeLa cells; IC50 / EC50,> 10000 nM
same,IC50,"DLD-1; basal, read-out: Basal_Viability ATP DLD-1",> 20000 nM
same,IC50,"SW480; basal, read-out: Basal_Viability ATP SW480",5330 nM
same,IC50,"HCT116; basal, read-out: Basal_Viability ATP HCT116",1220 nM
same,IC50,"[3]; GSK3b inhibitor pretreated, read-out: GSK3b inh pretreated_Viability ATP HCT116",12000 nM
same,IC50,Colo320; basal; read-out: Basal_Viability ATP Colo 320,15200 nM
same,IC50,HT-29; basal,> 20000 nM
same,IC50,"SNU-C1; basal, read-out: Basal_Viability ATP SNU-C1",> 20000 nM
O=c1[nH]cc(F)c(=O)[nH]1 [Fluorouracil],IC50,[1]; Homo sapiens; read-out: Anti-Angiogenesis,> 10000 nM
same,EC50,"[2]; Mus musculus, C2C12, S2 Table, module primary assay, 20 / 20.1 codes per legend, read-out: Wnt Pathway",> 10000 nM
same,EC50,"INS-1E cells; Rattus norvegicus, INS-1E; read-out: Insulin Secretion",> 10000 nM
same,EC50,"NCI-H716 cells; Homo sapiens, NCI-H716; read-out: GLP 1 Secretion",> 10000 nM
same,EC50,"HeLa cells; Homo sapiens, S2 Table, 20 = no response at highest concentration",> 10000 nM
same,IC50,"DLD-1; Homo sapiens, DLD-1, basal, DLD-1, read-out: Basal_Viability ATP DLD-1",> 20000 nM
same,IC50,"SW480; Homo sapiens, SW480, basal, SW480, read-out: Basal_Viability ATP SW480",> 20000 nM
same,IC50,Colo320; Homo sapiens; basal; Colo 320; read-out: Basal_Viability ATP Colo 320,> 20000 nM
same,IC50,"HT-29; Homo sapiens, basal, HT-29",> 20000 nM
same,IC50,RKO; Homo sapiens; basal; RKO; read-out: Basal_Viability ATP RKO,> 20000 nM
same,IC50,"SNU-C1; Homo sapiens, SNU-C1, basal, SNU-C1, read-out: Basal_Viability ATP SNU-C1",> 20000 nM
"CC(=O)[O][Hg][c]1ccccc1 [Mercury, (acetato-o)phenyl-]",IC50,[1]; read-out: Anti-Angiogenesis,530 nM
same,EC50,"[2]; S2 Table, module primary assay, 20 / 20.1 codes per legend, read-out: Wnt Pathway",> 10000 nM
same,EC50,INS-1E cells; [4],> 10000 nM
same,EC50,NCI-H716 cells; read-out: GLP 1 Secretion,713 nM
same,IC50,DLD-1; [5],736 nM
same,IC50,SW480; [6],543 nM
same,IC50,HCT116; [7],2800 nM
same,IC50,[3]; [8],360 nM
same,IC50,Colo320; basal; Colo 320; read-out: Basal_Viability ATP Colo 320,1300 nM
same,IC50,"HT-29; basal, HT-29",799 nM
same,IC50,RKO; [9],1200 nM
same,IC50,SNU-C1; [10],192 nM
N=C(N)NN=C(/C=C/c1ccc([N+](=O)[O-])o1)/C=C/c1ccc([N+](=O)[O-])o1 [Nitrovin],IC50,"[1]; S2 Table; module primary assay; 20 = no response at highest concentration, 20.1 = inactive in single concentration testing; read-out: Anti-Angiogenesis",> 10000 nM
same,EC50,[2]; read-out: Wnt Pathway,372 nM
same,EC50,INS-1E cells; [4],> 10000 nM
same,EC50,NCI-H716 cells; S2 Table; module primary assay; 20 / 20.1 codes per legend; read-out: GLP 1 Secretion,> 10000 nM
same,EC50,"HeLa cells; S2 Table, 20 = no response at highest concentration",> 10000 nM
same,IC50,DLD-1; [5],> 20000 nM
same,IC50,SW480; [6],7.6 nM
same,IC50,HCT116; [7],136 nM
same,IC50,[3]; [8],23.7 nM
same,IC50,RKO; [9],12.8 nM
same,IC50,SNU-C1; [10],1350 nM
COc1cc(NC(C)CCCN)c2ncccc2c1 (stereo not shown) [Primaquine],IC50,"[1]; Homo sapiens, read-out: Anti-Angiogenesis",> 10000 nM
same,EC50,"[2]; Mus musculus, C2C12, read-out: Wnt Pathway",> 10000 nM
same,EC50,"INS-1E cells; Rattus norvegicus, INS-1E, read-out: Insulin Secretion",> 10000 nM
same,EC50,"NCI-H716 cells; Homo sapiens, NCI-H716, read-out: GLP 1 Secretion",> 10000 nM
same,EC50,HeLa cells; Homo sapiens,> 10000 nM
same,IC50,"DLD-1; Homo sapiens, DLD-1, read-out: Basal_Viability ATP DLD-1",> 20000 nM
same,IC50,"SW480; Homo sapiens, SW480, read-out: Basal_Viability ATP SW480",> 20000 nM
same,IC50,"HCT116; Homo sapiens, HCT-116, read-out: Basal_Viability ATP HCT116",1880 nM
same,IC50,"[3]; Homo sapiens, HCT-116, read-out: GSK3b inh pretreated_Viability ATP HCT116",> 20000 nM
same,IC50,"Colo320; Homo sapiens, COLO 320, read-out: Basal_Viability ATP Colo 320",> 20000 nM
same,IC50,"RKO; Homo sapiens, RKO, read-out: Basal_Viability ATP RKO",> 20000 nM
same,IC50,"SNU-C1; Homo sapiens, SNU-C1, read-out: Basal_Viability ATP SNU-C1",> 20000 nM
O=C(Nc1ccc(Oc2ccc(Cl)cc2)c(Cl)c1)c1cc(I)cc(I)c1O [Rafoxanide],IC50,"[1]; Homo sapiens, IC50 / EC50; endothelial tube area, ADSC/ECFC co-culture; read-out: Anti-Angiogenesis",> 10000 nM
same,EC50,"[2]; Mus musculus, C2C12, IC50 / EC50, C2C12 beta-catenin translocation, read-out: Wnt Pathway",> 10000 nM
same,EC50,INS-1E cells; Rattus norvegicus; IC50 / EC50; INS-1E; read-out: Insulin Secretion,> 10000 nM
same,EC50,NCI-H716 cells; Homo sapiens; IC50 / EC50; NCI-H716; read-out: GLP 1 Secretion,1300 nM
same,IC50,"DLD-1; Homo sapiens, DLD-1, basal, read-out: Basal_Viability ATP DLD-1",8.4 nM
same,IC50,"SW480; Homo sapiens, SW480, basal, read-out: Basal_Viability ATP SW480",10.8 nM
same,IC50,"HCT116; Homo sapiens, HCT-116, basal, read-out: Basal_Viability ATP HCT116",16.9 nM
same,IC50,"[3]; Homo sapiens, HCT-116, GSK3b inhibitor pretreated, read-out: GSK3b inh pretreated_Viability ATP HCT116",66.7 nM
same,IC50,"Colo320; Homo sapiens, COLO 320; read-out: Basal_Viability ATP Colo 320",54 nM
same,IC50,"HT-29; Homo sapiens, HT-29",9.5 nM
same,IC50,"RKO; Homo sapiens, RKO; read-out: Basal_Viability ATP RKO",30.3 nM
same,IC50,"SNU-C1; Homo sapiens, SNU-C1, basal, read-out: Basal_Viability ATP SNU-C1",14.3 nM
